{
  "source": "patent US20220370464A1",
  "about": "“COMPOSITIONS AND METHODS OF TREATING OR PREVENTING OCULAR INFECTIONS WITH FILOCICLOVIR” (Microbiotix, Inc., priority 2019, published 2022)",
  "key": {"ocular AdV infections": {"system": "ocular AdV infections", "conditions": "literature, cited from earlier work"}, "AdV 6": {"system": "AdV 6", "assay": "Antiviral EC50 against AdV 6 (method not given)", "assay_type": "cell-based, adenovirus 6", "conditions": "Human mastadenovirus C; AdV 6, summary table"}, "AdV 7": {"system": "AdV 7", "assay": "Antiviral EC50 against AdV 7 (method not given)", "assay_type": "cell-based, adenovirus 7", "conditions": "Human mastadenovirus B; AdV 7, summary table"}, "Adenovirus 6 (AdV6)": {"system": "Adenovirus 6 (AdV6)", "assay": "Neutral red survival assay, AdV6 in A549 cells", "assay_type": "cell-based", "description": "(§1) Similar experiments were carried out with filociclovir against adenovirus 6, adenovirus 7, and adenovirus 8.\n(§2) The neutral red cell cytotoxicity assay is used to detect cell viability or drug cytotoxicity. The principle of this assay is based on the detection of viable cells via the uptake of the dye neutral red. Neutral red is a eurhodin dye that stains lysosomes in viable cells. Viable cells can take up neutral red via active transport and incorporate the dye into their lysosomes, but non-viable cells cannot not take up this chromophore. Consequently, after washing, viable cells can release the incorporated dye under acidified-extracted conditions. The amount of released dye can be used to determine the total number of viable cells or drug cytotoxicity. As such, cytotoxicity is expressed as a concentration-dependent reduction of the uptake of neutral red after exposure to the compound under investigation.\n(§3) Neutral red survival assays were carried out in a 96-well format. Briefly, A549 adenocarcinomic human alveolar basal epithelial cells were plated at a concentration of 6×10^3 cells per well one day prior to infection. AdV6 infections were carried out at 5×10^3 PFU per well (an estimated 0.5 PFU/cell at the time of infection). […] Filociclovir plates were read and the results were graphed using GraphPad Prism graphing and statistical software (GraphPad Software, San Diego, Calif.)."}, "[1]": {"assay": "Cytotoxicity, neutral red, uninfected drug control wells of A549 cells", "assay_type": "cell-based", "conditions": "human, AdV6 row of Table 2", "excerpt": "as §2\nas §3, with “infection). Filociclovir was serially diluted 1:3 on separate 96-well plates with a no drug final row as control.” for “infection).”"}, "AdV7": {"system": "AdV7", "assay": "CPE reduction assay, adenovirus 7", "assay_type": "cell-based", "description": "as §1"}, "AdV5": {"system": "AdV5", "assay": "Immunofluorescence assay of AdV5-infected A549 cells (DBP and hexon staining)", "assay_type": "cell-based, adenovirus 5", "conditions": "27 hours post-infection", "description": "(§4) Human A549 cells on glass coverslips in 6-well plates were infected at an MOI of 5 PFU/cell with either AdV5 or AdV6 or were mock-infected. After 1 hour, filociclovir was added to a final concentration of 40, 10, 4, or 0 μM. At 27 hours post-infection, the A549 cells were fixed in paraformaldehyde (3.7% in PBS) and permeabilized with methanol. Cells were stained for the Adenovirus DNA-binding protein (DBP; green staining in images) and adenovirus hexon (red staining in images). DBP staining will be […] and uniform during early AdV infection (prior to AdV DNA replication). DBP associates with replication centers as the infection progresses. The replication centers are initially small “dots” (each dot results from one incoming AdV genome). The replication centers will expand and “multiply” as DNA replication takes place. The nuclei become enlarged and misshapen as infection progresses. AdV hexon, the most abundant component of the AdV viral capsid, is not expressed until after DNA replication is taking place and is therefore considered to be a “late” AdV protein."}, "AdV6": {"system": "AdV6", "assay": "Immunofluorescence assay of AdV6-infected A549 cells (DBP and hexon staining)", "assay_type": "cell-based, adenovirus 6", "conditions": "27 hours post-infection", "description": "as §4"}, "[2]": {"assay": "Pharmacokinetics in immunosuppressed Syrian hamsters", "assay_type": "in vivo", "conditions": "for detectability after administration (FIG. 5): 6 hours after administration", "description": "In order to test the pharmacokinetics of filociclovir, Syrian hamsters were given either an oral (p.o. 50 mg/kg) or intravenous (i.v. 10 mg/kg) dose of filociclovir.\nFor i.v. administration, filociclovir was dissolved in DMSO (Sigma D2650) and then diluted with water to a final concentration of 5 mg/ml for filociclovir and 75% DMSO. The dosing solutions were prepared one day before use and stored at 4° C.\nMale hamsters were purchased from Envigo (Harlan) at ˜100 g body weight. […] The animals received three injections of CP before the administration of filociclovir. Two groups of animals (12 hamsters/group) were used for the two routes of administrations. In addition, three untreated animals (the same three hamsters for both routes) served as mock controls. The p.o. and i.v. experiments were performed on two consecutive days. As the hamsters weighed approximately 100 g, (+/−10%), they were administered 1 ml and 0.2 ml for the p.o. and i.v. routes, respectively, to achieve the desired dose. For both routes, 3 hamsters were sacrificed at 0.5, 1, 3, and 6 h post dosing.\nPlasma and liver samples were collected from all animals and stored at −80° C. until analyzed by LC MS as follows: • All samples and standards were processed on ice; • Standard curve is constructed with authentic compound (fresh powder DMSO reconstitution spiked into “blank” Hamster plasma) and all samples spiked with 500 ng/mL carbamezapine (Internal Standard); • Early time point samples are diluted in “blank” hamster plasma (try to attain concentrations on the standard curve); • Sample extracted with 2× sample volume with 0.1% ammonium formate in methanol (i.e. 30 μL sample+60 μL 0.1% ammonium formate in methanol); • Extracted samples centrifuged on maximum setting in microfuge; • Supernatants are analyzed by LC/MS/MS Dynamic Multiple Reaction Monitoring (DMRM) utilizing custom method."}, "CMV": {"system": "CMV", "conditions": "β Herpesvirus, cited from earlier work"}, "EBV": {"system": "EBV", "conditions": "γ Herpesvirus, cited from earlier work"}, "HHV-8": {"system": "HHV-8", "conditions": "γ Herpesvirus, cited from earlier work"}, "BK Virus": {"system": "BK Virus", "conditions": "Polyomavirus, cited from earlier work"}, "JC Virus": {"system": "JC Virus", "conditions": "Polyomavirus, cited from earlier work"}},
  "note": "Like-named read-outs stand apart in the source and are kept apart here.",
  "data": [
    {"smiles": "Nc1ccn(C[C@@H](CO)OCP(=O)(O)O)c(=O)n1", "note": "[CDV, cidofovir, reference compound]", "values": [
      {"measurement": "ocular toxicity", "setting": "ocular AdV infections; even at low doses", "value": "substantial ocular toxicity"},
      {"measurement": "improvement in the symptoms or course of the disease", "setting": "ocular AdV infections; ocular AdV infections", "value": "not exhibited a statistically significant improvement"}
    ]},
    {"smiles": "Nc1nc2c(ncn2/C=C2/CC2(CO)CO)c(=O)[nH]1", "note": "[Filociclovir, 2-amino-9-{(Z)-[2,2-bis(hydroxymethyl)cyclopropylidene]methyl}-3,9-dihydro-6H-purin-6-one]", "values": [
      {"measurement": "EC50", "setting": "AdV 6", "value": 2, "unit": "µM"},
      {"measurement": "EC50", "setting": "AdV 7", "value": 1, "unit": "µM"},
      {"measurement": "concentration effective to improve viability of AdV6 infected cells (FIG. 2)", "setting": "Adenovirus 6 (AdV6); A549 cells, 6 days post-infection, 'as low as'", "value": "≥ 10^−1 μM"},
      {"measurement": "CC50/EC50", "setting": "Adenovirus 6 (AdV6); AdV6", "value": 27},
      {"measurement": "CC50 at 6 days", "setting": "[1]", "value": "> 100", "unit": "µM"},
      {"measurement": "CC50/EC50", "setting": "AdV7", "value": ">144"},
      {"measurement": "hexon-positive cells", "setting": "AdV5; AdV5, A549, 4 μM", "value": "Some hexon-positive cells"},
      {"measurement": "hexon-positive cells", "setting": "AdV5; AdV5, A549, 10 μM", "value": "extremely few hexon-positive cells"},
      {"measurement": "hexon-positive cells", "setting": "AdV5; AdV5, A549, 40 μM", "value": "No hexon-positive cells"},
      {"measurement": "hexon-positive cells", "setting": "AdV6; AdV6, A549, 4 μM", "value": "Some hexon-positive cells"},
      {"measurement": "hexon-positive cells", "setting": "AdV6; AdV6, A549, 10 μM", "value": "extremely few hexon-positive cells"},
      {"measurement": "hexon-positive cells", "setting": "AdV6; AdV6, A549, 40 μM", "value": "No hexon-positive cells"},
      {"measurement": "oral bioavailability", "setting": "[2]; hamsters", "value": "good oral bioavailability"},
      {"measurement": "detectability after administration (FIG. 5)", "setting": "[2]; i.v. 10 mg/kg", "value": "still detectable"},
      {"measurement": "detectability after administration (FIG. 5)", "setting": "[2]; p.o. 50 mg/kg", "value": "still detectable"},
      {"measurement": "EC50", "setting": "CMV; listed as filociclovir", "value": "≤ 10", "unit": "µM"},
      {"measurement": "EC50", "setting": "CMV", "value": "1 ± 0.6", "unit": "µM"},
      {"measurement": "EC50", "setting": "EBV; listed as filociclovir", "value": "≤ 10", "unit": "µM"},
      {"measurement": "EC50", "setting": "EBV", "value": "1 ± 0.94", "unit": "µM"},
      {"measurement": "EC50", "setting": "HHV-8; listed as filociclovir", "value": "≤ 10", "unit": "µM"},
      {"measurement": "EC50", "setting": "HHV-8", "value": "5.6 ± 5", "unit": "µM"},
      {"measurement": "EC50", "setting": "BK Virus; listed as filociclovir", "value": "≤ 50", "unit": "µM"},
      {"measurement": "EC50", "setting": "BK Virus", "value": "34 ± 17", "unit": "µM"},
      {"measurement": "EC50", "setting": "JC Virus; listed as filociclovir", "value": "≤ 50", "unit": "µM"},
      {"measurement": "EC50", "setting": "JC Virus", "value": "46 ± 44", "unit": "µM"}
    ]}
  ]
}
